From article PMC4503722, “Novel Phenotypic Outcomes Identified for a Public Collection of Approved Drugs from a Publicly Accessible Panel of Assays” (PLoS ONE, 2015)
Read-outs that look alike come from different tables or passages of the source.

Columns and labels:
[1] = tested on: nuclear β-catenin in C2C12 cells; experiment: cells; type: cell-based; details: Mus musculus
[2] = tested on: SW480; experiment: cells; type: cell-based; details: for IC50: Homo sapiens
[3] = tested on: HCT116; experiment: cells; type: cell-based; details: for IC50: Homo sapiens
[4] = tested on: INS-1E cells; experiment: cells; type: cell-based, rat; details: for EC50: Rattus norvegicus, INS-1E, read-out: Insulin Secretion; for 5mMGluc_INS1E SecretionMod IC50/EC50: assay number 8;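 as to 5mMGluc INS1E SecretionMod IC50/EC50: secreted insulin quantified by homogeneous immunoassay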;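 as to IC50/EC50, 5mMGluc INS1E SecretionMod (assay number 8): secreted insulin quantified by homogeneous immunoassay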
[5] = tested on: DLD-1; experiment: cells; type: cell-based; details: for IC50: Homo sapiens
[6] = tested on: HCT116 cells treated with a GSK3β inhibitor; experiment: cells; type: cell-based; details: for IC50: Homo sapiens
[7] = tested on: ECFC/ADSC co-culture cell nuclei number
[8] = tested on: NCI-H716 cells; experiment: cells; type: cell-based, Human; details: for EC50: Homo sapiens, IC50 / EC50, NCI-H716, read-out: GLP 1 Secretion
[9] = tested on: HT-29; experiment: cells; type: cell-based; details: assay number 28; basal
[10] = tested on: Colo320; experiment: cells; type: cell-based; details: assay number 27; basal
[11] = tested on: SNU-C1; experiment: cells; type: cell-based; details: assay number 30; basal
[12] = tested on: RKO; experiment: cells; type: cell-based; details: assay number 29; basal
[13] = C2C12, IC50 / EC50, C2C12 beta-catenin translocation, read-out: Wnt Pathway
[14] = SW480, basal, read-out: Basal_Viability ATP SW480
[15] = HCT-116, basal, read-out: Basal_Viability ATP HCT116
[16] = DLD-1, basal, read-out: Basal_Viability ATP DLD-1
[17] = HCT-116, GSK3b inhibitor pretreated, read-out: GSK3b inh pretreated_Viability ATP HCT116

Structure (SMILES): CN(C)c1ccc2nc3ccc(=[N+](C)C)cc-3sc2c1 [Methylene blue]
- EC50 ([1]; C2C12, read-out: Wnt Pathway): > 10 µM
- IC50 ([2]; SW480, read-out: Basal_Viability ATP SW480): 2.68 µM
- IC50 ([3]; HCT-116, read-out: Basal_Viability ATP HCT116): 2.93 µM
- EC50 [4]: > 10 µM
- IC50 ([5]; DLD-1, read-out: Basal_Viability ATP DLD-1): > 20 µM
- IC50 ([6]; HCT-116, read-out: GSK3b inh pretreated_Viability ATP HCT116): 1.39 µM

Structure (SMILES): Clc1ccc(COC(Cn2ccnc2)c2ccc(Cl)cc2Cl)cc1.O=[N+]([O-])O (stereo not shown) [NCGC00018258-10]
- VEGF_ADSC\ECFC Angio Hoechst NucArea IC50/EC50 [7]: 9.932 µM
- hNCI-H716 GLP1 Secretion IC50/EC50 ([8]; assay number 12): 25.6136 µM

Structure (SMILES): O=C1NCN(c2ccccc2)C12CCN(CCCOc1ccc(F)cc1)CC2 [NCGC00024633-07]
- Basal_Viability ATP HT-29 IC50/EC50 [9]: 2.458 µM
- Basal_Viability ATP Colo 320 IC50/EC50 [10]: 11.821 µM
- Basal_Viability ATP SW480 IC50/EC50 ([2]; assay number 24, basal): 4.608 µM
- Basal_Viability ATP SNU-C1 IC50/EC50 [11]: 0.2416 µM
- Basal_Viability ATP RKO IC50/EC50 [12]: 5.3051 µM
- Basal_Viability ATP HCT116 IC50/EC50 ([3]; assay number 25, basal): 8.82 µM
- 5mMGluc_INS1E SecretionMod IC50/EC50 ([4]; 5 mM glucose): > 33.33 µM
- Basal_Viability ATP DLD-1 IC50/EC50 ([5]; assay number 23, basal): 0.8817 µM
- GSK3b inh pretreated_Viability ATP HCT116 IC50/EC50 ([6]; assay number 26, GSK3b inhibitor pretreated): 5.333 µM

Structure (SMILES): Cc1c(C)n(CCN(C)C)c2ccc(C(=O)OCCN(C)C)cc12 [Amindocate]
- EC50 [1, 13]: > 10 µM
- IC50 [2, 14]: 10.2 µM
- EC50 [8]: 1200 nM
- IC50 [3, 15]: > 20 µM
- EC50 ([4]; IC50 / EC50): > 10 µM
- IC50 [5, 16]: > 20 µM
- IC50 [6, 17]: > 20 µM

Structure (SMILES): C/C(=C(/CCOC(=O)C(C)C)SS/C(CCOC(=O)C(C)C)=C(\C)N(C=O)Cc1cnc(C)nc1N)N(C=O)Cc1cnc(C)nc1N [sulbutiamine]
- EC50 [1, 13]: > 10 µM
- IC50 [2, 14]: > 20 µM
- EC50 [8]: 2390 nM
- IC50 [3, 15]: > 20 µM
- EC50 ([4]; IC50 / EC50): > 20 µM
- IC50 [5, 16]: > 20 µM
- IC50 [6, 17]: > 20 µM

Structure (SMILES): Cc1ccc(C(=O)Nc2ccc(S(=O)(=O)O)c3cc(S(=O)(=O)O)cc(S(=O)(=O)O)c23)cc1NC(=O)c1cccc(NC(=O)Nc2cccc(C(=O)Nc3cc(C(=O)Nc4ccc(S(=O)(=O)O)c5cc(S(=O)(=O)O)cc(S(=O)(=O)O)c45)ccc3C)c2)c1 [NCGC00025177-08]
- IC50/EC50, hNCI-H716 GLP1 Secretion (assay number 12) ([8]; concentration response): > 40 µM

Structure (SMILES): Cc1ccc(O)c([C@H](CCN(C(C)C)C(C)C)c2ccccc2)c1 [NCGC00263557-01]
- 5mMGluc_INS1E SecretionMod IC50/EC50 ([4]; 5 mM glucose): > 33.33 µM

Structure (SMILES): CCN(CC)C(C)CN1c2ccccc2Sc2ccccc21.Cl (stereo not shown) [NCGC00178860-06]
- 5mMGluc_INS1E SecretionMod IC50/EC50 ([4]; 5 mM glucose): > 33.33 µM

Structure (SMILES): O=C(CCCN1CCC(O)(c2ccc(Br)cc2)CC1)c1ccc(F)cc1 [NCGC00016692-05]
- 5mMGluc_INS1E SecretionMod IC50/EC50 ([4]; 5 mM glucose): > 33.33 µM

Structure (SMILES): CN(C)CCCOc1nn(Cc2ccccc2)c2ccccc12.Cl [NCGC00016397-04]
- IC50/EC50, 5mMGluc_INS1E SecretionMod (assay number 8) ([4]; 5 mM glucose): 21.3864 µM

Structure (SMILES): CC(CCc1ccccc1)NC(C)C(O)c1ccc(O)cc1 (stereo not shown) [NCGC00015716-09]
- 5mMGluc_INS1E SecretionMod IC50/EC50 ([4]; 5 mM glucose): 14.4759 µM
